Activity calls are given as the source filed them. How the calls were made is not given here.

The assay deals with M. tuberculosis H37Rv growth inhibition with meropenem. Description: dose response, H37Rv, with and without meropenem (AID 434987).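 Further: growth over 7 days at 37 °C before Alamar Blue read on day 9.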
Setting [1] is: M. tuberculosis H37Rv growth inhibition, measured here: IC50 without meropenem.
Setting [2] is: M. tuberculosis H37Rv growth inhibition, measured here: IC90 without meropenem.
Setting [3] is: measured here: IC90 with meropenem.

Turning to `CCOC(=O)c1nn(-c2ccc(Cl)cc2)cc1O`, the IC50 (in general, the concentration that gives 50% inhibition) was > 100 µM (inactive). Under setting [1], the IC50 was over 100 µM. Under setting [2], the concentration for an effect of 90% (IC90) (usually the concentration at which the effect reaches the 90% level) is over 100 µM. Also, under setting [3], the IC90 was over 100 µM.

Consider `COc1cccc(/C=N/NC(=O)NC23CC4CC(CC(C4)C2)C3)c1O`, for which the IC50 is 2.93 µM. The molecule also yielded an IC50 under setting [1] of 46.9 µM. Further, the IC90 under setting [2] is over 100 µM. Under setting [3], this molecule showed an IC90 of 26.8 µM.

Consider `O=C(Nc1ccccc1-c1ccccc1)C12CC3CC(CC(C3)C1)C2`, for which the IC50 is > 100 µM (inactive). Under setting [1], this molecule gave an IC50 of over 100 µM. The molecule further displayed an IC90 under setting [2] of over 100 µM. Further, under setting [3], the IC90 is over 100 µM.

On to `COc1cc(C(=O)Oc2ccccc2/C=N/NC(=O)c2ccc(C)c(Cl)c2)cc(OC)c1OC`, for which the IC50 is 1.96 µM. The molecule also yielded an IC50 under setting [1] of over 100 µM. Under setting [2], this molecule had an IC90 of over 100 µM. This molecule also returned an IC90 under setting [3] of over 3.13 µM.

`Cc1ccc(C)c(NC(=O)C2Cc3ccccc3CN2C(=O)OCc2ccccc2)c1` (stereo not drawn): the IC50 was 71.3 µM (inactive). Moreover, under setting [1], the IC50 was determined as 91.3 µM. Moreover, the IC90 under setting [2] is over 100 µM. In addition, under setting [3], the concentration for an effect of 90% (IC90) was over 100 µM.

Regarding `CC(=O)NC(=S)Nc1ccc(NC(=O)c2cccs2)cc1`, the IC50 is 48.7 µM (inactive). This molecule displayed an IC50 under setting [1] of over 100 µM. The IC90 under setting [2] is over 100 µM. In addition, under setting [3], the IC90 is over 100 µM.

Turning to `CN(Cc1ccccc1)C(=S)NC(=O)c1ccc(-c2ccccc2)cc1`, the IC50 was 7.23 µM. Also, under setting [1], the IC50 turned out to be 24.2 µM. For the same molecule, the IC90 under setting [2] was over 100 µM. Under setting [3], this molecule returned an IC90 of over 100 µM.

In the case of `NC(=S)N/N=C/c1cccc(/C=N/NC(N)=S)c1`, the IC50 was 25 µM. The molecule further yielded an IC50 under setting [1] of over 100 µM. Under setting [2], the IC90 was over 100 µM. The molecule also registered an IC90 under setting [3] of over 100 µM.

For `Cc1cc(C)nc(SCC(=O)Nc2ccccc2[N+](=O)[O-])n1`, the IC50 was 14.4 µM (inactive). Under setting [1], this molecule yielded an IC50 of 27.9 µM. Moreover, the IC90 under setting [2] is over 100 µM. Further, the IC90 under setting [3] is over 100 µM.

For `Cc1ccc(NC(=S)Nc2ncccc2C)c(C)c1`, the IC50 is 46.2 µM (inactive). The molecule further had an IC50 under setting [1] of 97.1 µM. This molecule had a concentration for an effect of 90% (IC90) under setting [2] of over 100 µM. For the same molecule, under setting [3], the IC90 is over 100 µM.

Consider `COc1ccc(/C=N/Nc2nc(-c3ccc(C)cc3)c(NC(C)=O)s2)cc1OC`, for which the IC50 was > 100 µM (inactive). Under setting [1], this molecule had an IC50 of over 100 µM. For the same molecule, the IC90 under setting [2] was over 100 µM. This molecule yielded an IC90 under setting [3] of over 100 µM.

Take `CCN(CC)C(=O)C1CCCN(c2ccc([N+](=O)[O-])cc2/C=N/NC(=O)c2cccc(O)c2)C1` (stereo not drawn): the IC50 is 48.1 µM (inactive). Besides, the IC50 under setting [1] came to 47.1 µM. In addition, the IC90 under setting [2] stood at 70.6 µM. Under setting [3], this molecule registered an IC90 of 55.3 µM.

Consider `COC(=O)c1c(C)n(-c2ccccc2)c2ccc(O)cc12`, for which the IC50 was 1.53 µM. Under setting [1], this molecule came in with an IC50 of over 100 µM. The molecule also displayed an IC90 under setting [2] of over 100 µM. The molecule further showed an IC90 under setting [3] of over 100 µM.

For `CCN(CC)C(=O)C1CCCN(c2ccc([N+](=O)[O-])cc2/C=N/NC(=O)c2cccc([N+](=O)[O-])c2)C1` (stereo not drawn), the IC50 was > 100 µM (inactive). This molecule registered an IC50 under setting [1] of over 100 µM. This molecule came in with an IC90 under setting [2] of over 100 µM. For the same molecule, the IC90 under setting [3] is over 100 µM.

Take `COc1ccc(-c2csc(NC(CO)c3nc4ccccc4n3Cc3ccc(C)cc3)n2)cc1` (stereo not drawn): the IC50 was 25 µM (inactive). The molecule also displayed an IC50 under setting [1] of 48.4 µM. Under setting [2], this molecule returned an IC90 of 57.2 µM. For the same molecule, the IC90 under setting [3] worked out at 26.4 µM.

Take `Cc1cc(C)cc(NC(=O)c2cc(Cl)sc2Cl)c1`: the IC50 is 4.84 µM. This molecule also displayed an IC50 under setting [1] of over 100 µM. Under setting [2], this molecule had an IC90 of over 100 µM. The IC90 under setting [3] turned out to be 7.73 µM.

As to `Cc1ccccc1Cn1cc(NC(=O)CSc2nc3c(c(C(F)(F)F)n2)CCc2ccccc2-3)cn1`, the IC50 was 26.4 µM. The molecule further had an IC50 under setting [1] of over 100 µM. Also, the IC90 under setting [2] is over 100 µM. This molecule gave an IC90 under setting [3] of over 100 µM.

Regarding `O=C(COC(=O)C1=COCCO1)Nc1ccc2c(c1)OCO2`, the IC50 was 3.86 µM. In addition, the IC50 under setting [1] was determined as 50 µM. Besides, under setting [2], the IC90 was over 100 µM. Also, the IC90 under setting [3] is over 100 µM.

For the molecule `CCC(CC)NC(=O)CON=C1c2ccccc2-c2ccccc21`, the IC50 is > 100 µM (inactive). Under setting [1], this molecule had an IC50 of over 100 µM. For the same molecule, the IC90 under setting [2] is over 100 µM. The same molecule returned an IC90 under setting [3] of over 100 µM.

With `CC(C)Cn1c2c(c(O)c(C(=O)Nc3ccc(F)cc3)c1=O)CCCC2`, the IC50 is 82.2 µM (inactive). The molecule also gave an IC50 under setting [1] of over 100 µM. Also, the IC90 under setting [2] is over 100 µM. Under setting [3], this molecule came in with an IC90 of over 100 µM.

Consider `CC1CCN(CC(CS(=O)(=O)c2ccc([N+](=O)[O-])cc2)N2CCC(C)CC2)CC1` (stereo not drawn), for which the IC50 was 13.7 µM (inactive). This molecule also registered an IC50 under setting [1] of 21 µM. Under setting [2], this molecule returned an IC90 of 30.3 µM. This molecule yielded a 90% effect concentration (IC90) under setting [3] of 31.5 µM.

As to `CCc1nc2scc(-c3cccs3)c2c(=O)o1`, the IC50 was > 100 µM (inactive). Moreover, under setting [1], the IC50 was over 100 µM. Also, under setting [2], the IC90 is over 100 µM. Under setting [3], this molecule returned an IC90 of over 100 µM.

Regarding `COc1ccc(C(=O)Nc2ccc3nc(N4CCCCC4)cc(C)c3c2)c(OC)c1`, the IC50 was 5.19 µM. The molecule further had an IC50 under setting [1] of over 100 µM. Under setting [2], this molecule showed an IC90 of over 100 µM. This molecule also yielded an IC90 under setting [3] of over 100 µM.

Regarding `COc1cc(NC(=O)c2cc(-c3cccnc3)nc3ccc(Br)cc23)cc(OC)c1`, the IC50 is > 100 µM (inactive). Also, under setting [1], the IC50 is over 100 µM. Besides, the IC90 under setting [2] was over 100 µM. The IC90 under setting [3] is over 100 µM.

Consider `O=C(C1=C[C@@H](c2ccc(Br)cc2)C[C@@H](OCc2ccc(CO)cc2)O1)N1CCN(Cc2ccc3c(c2)OCO3)CC1`, for which the IC50 was 79.3 µM (inactive). For the same molecule, the IC50 under setting [1] is over 100 µM. Moreover, the IC90 under setting [2] was over 100 µM. The molecule further showed an IC90 under setting [3] of over 100 µM.

With `COc1ccc2nc(NC(=O)NC3CCCCC3)sc2c1`, the IC50 is > 100 µM (inactive). The same molecule showed an IC50 under setting [1] of over 100 µM. The molecule further gave an IC90 under setting [2] of over 100 µM. In addition, the IC90 under setting [3] is over 100 µM.

For `CCOC(=O)c1ccc(C(=O)NNC(=O)C2CC=CCC2)cc1` (stereo not drawn), the IC50 is 8.57 µM (inactive). The molecule further registered an IC50 under setting [1] of 20.9 µM. Under setting [2], this molecule returned an IC90 of 31.9 µM. For the same molecule, the IC90 under setting [3] was found to be 40 µM.

On to `COc1ccc(C2C(C#N)=C(SCC(=O)Nc3ccc(C)cc3)NC3=C2C(=O)CC(C)(C)C3)cc1` (stereo not drawn), for which the IC50 was 94.3 µM (inactive). This molecule also displayed an IC50 under setting [1] of over 100 µM. Besides, the IC90 under setting [2] is over 100 µM. Also, the IC90 under setting [3] was over 100 µM.

As to `O=C(Cn1nnc2c(cnn2-c2ccccc2)c1=O)N1CCN(c2ccccc2F)CC1`, the IC50 is > 100 µM (inactive). In addition, the IC50 under setting [1] is over 100 µM. Further, under setting [2], the IC90 is over 100 µM. The same molecule displayed a 90% effect concentration (IC90) under setting [3] of over 100 µM.

For the molecule `Cn1c(=O)c2[nH]c(CNCc3ccccc3Cl)nc2n(C)c1=O`, the IC50 was 37.1 µM. This molecule returned an IC50 under setting [1] of over 100 µM. Also, the IC90 under setting [2] was over 100 µM. Besides, the IC90 under setting [3] is over 100 µM.

On to `O=c1c2ccccc2c(-c2ccccc2)nn1-c1ccccc1`, for which the half-inhibitory concentration (IC50) is 19.7 µM. This molecule displayed an IC50 under setting [1] of over 100 µM. Further, the IC90 under setting [2] was over 100 µM. The molecule further gave an IC90 under setting [3] of over 100 µM.

On to `CCNC(=S)N/N=C1\C(=O)c2cccc3cccc1c23`, for which the IC50 is 5.46 µM. This molecule returned an IC50 under setting [1] of over 100 µM. The same molecule returned an IC90 under setting [2] of over 100 µM. The IC90 under setting [3] came to 7.61 µM.

These data come from PubChem BioAssay AID434987 (Southern Research Specialized Biocontainment Screening …, 2010).
